From ChEMBL document CHEMBL4725457, “Novel Bicyclic Heteroaryl Compounds as γ-Secretase Modulators for Treating Alzheimer's Disease” (ACS Med Chem Lett, 2020)

Biological target: Gamma-secretase
Experiment: Inhibition of human gamma secretase assessed as reduction in Abeta42 production
Format: protein-complex assay

SMILES	IC50
Cc1cc(N2C[C@H]3CC[C@@H](C2)[C@@H]3Nc2nc3n(n2)CCC[C@H]3Oc2cccc(Cl)c2)ncn1	9.9 nM
COc1cc(N2C[C@H]3CC[C@@H](C2)[C@@H]3Nc2nc3n(n2)CC[C@H]3Oc2cc(F)cc(Cl)c2)cnn1	8.1 nM
Cc1cc(N2C[C@H]3CC[C@@H](C2)[C@@H]3Nc2nc3n(n2)CCC[C@H]3Oc2cc(F)cc(Cl)c2)ncn1	8.1 nM
Cc1cc(N2C[C@H]3CC[C@@H](C2)[C@@H]3Nc2nc3n(n2)CCC[C@H]3Oc2ccc(Cl)cc2)ncn1	10.3 nM

Stronger by IC50, values ahead:

IC50	SMILES
6.3 nM	COc1cc(N2C[C@H]3CC[C@@H](C2)[C@@H]3Nc2nc3n(n2)CCC[C@H]3Oc2cc(F)cc(Cl)c2)cnn1
6.6 nM	Cc1cc(N2C[C@H]3CC[C@@H](C2)[C@@H]3Nc2nc3n(n2)CCC[C@H]3Oc2cc(Cl)cc(Cl)c2)ncn1
